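Tested at 5 concentrations; 48 h exposure; 96-well plates; endpoints linearly interpolated, else capped at highest concentration. GI50 is the concentration that inhibits growth by half. TGI is the concentration that stops growth completely.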
Key:
Test in all cases: growth of human tumour cells (NCI), 48 h
HL-60(TB) leukemia = system: HL-60(TB) leukemia
A549 NSCLC = system: A549 NSCLC
HT29 colon = system: HT29 colon
UACC-257 melanoma = system: UACC-257 melanoma
NCI-H460 lung = system: NCI-H460 lung
NCI-H23 lung = system: NCI-H23 lung
MDA-MB-231 breast = system: MDA-MB-231 breast
TK-10 renal = system: TK-10 renal
T-47D breast = system: T-47D breast
OVCAR-5 ovarian = system: OVCAR-5 ovarian
OVCAR-3 ovarian = system: OVCAR-3 ovarian
SK-MEL-28 melanoma = system: SK-MEL-28 melanoma
SF-268 CNS = system: SF-268 CNS
SNB-19 CNS = system: SNB-19 CNS
HCT-15 colon = system: HCT-15 colon
MDA-MB-435 = system: MDA-MB-435
SR leukemia = system: SR leukemia
NCI-H226 lung = system: NCI-H226 lung
A498 renal = system: A498 renal
CCRF-CEM leukemia = system: CCRF-CEM leukemia
RPMI-8226 leukemia = system: RPMI-8226 leukemia
K-562 leukemia = system: K-562 leukemia
SF-295 CNS = system: SF-295 CNS
IGROV1 ovarian = system: IGROV1 ovarian
COLO 205 colon = system: COLO 205 colon
SNB-75 CNS = system: SNB-75 CNS
M14 melanoma = system: M14 melanoma
786-0 renal = system: 786-0 renal
CAKI-1 renal = system: CAKI-1 renal
UO-31 renal = system: UO-31 renal
SK-OV-3 ovarian = system: SK-OV-3 ovarian
LOX IMVI melanoma = system: LOX IMVI melanoma
PC-3 prostate = system: PC-3 prostate
OVCAR-4 ovarian = system: OVCAR-4 ovarian
HCT-116 colon = system: HCT-116 colon
U251 CNS = system: U251 CNS
ACHN renal = system: ACHN renal
KM12 colon = system: KM12 colon
OVCAR-8 ovarian = system: OVCAR-8 ovarian
NCI-H522 lung = system: NCI-H522 lung
HOP-62 NSCLC = system: HOP-62 NSCLC
NCI/ADR-RES ovarian = system: NCI/ADR-RES ovarian
RXF 393 renal = system: RXF 393 renal
SN12C renal = system: SN12C renal
HS 578T breast = system: HS 578T breast
MCF7 breast = system: MCF7 breast
DU-145 prostate = system: DU-145 prostate
HOP-92 NSCLC = system: HOP-92 NSCLC
UACC-62 melanoma = system: UACC-62 melanoma
BT-549 breast = system: BT-549 breast
MALME-3M melanoma = system: MALME-3M melanoma
SF-539 CNS = system: SF-539 CNS
SK-MEL-2 melanoma = system: SK-MEL-2 melanoma
EKVX NSCLC = system: EKVX NSCLC
HCC-2998 colon = system: HCC-2998 colon
MOLT-4 leukemia = system: MOLT-4 leukemia
SK-MEL-5 melanoma = system: SK-MEL-5 melanoma

Compound: O=C1c2ccn(CCCCN3CCOCC3)c2C(=O)c2c1c(O)c1ccccc1c2O
- GI50 (HL-60(TB) leukemia): 9.07 µM
- TGI (HL-60(TB) leukemia): 59.9 µM
- GI50 (A549 NSCLC): 14.4 µM
- TGI (A549 NSCLC): 38.7 µM
- GI50 (HT29 colon): 3.75 µM
- TGI (HT29 colon): 97 µM
- GI50 (UACC-257 melanoma): 8.43 µM
- TGI (UACC-257 melanoma): 27.4 µM
- GI50 (NCI-H460 lung): 12.3 µM
- TGI (NCI-H460 lung): 28.4 µM
- GI50 (NCI-H23 lung): 11.4 µM
- TGI (NCI-H23 lung): 23.6 µM
- GI50 (MDA-MB-231 breast): 12.7 µM
- TGI (MDA-MB-231 breast): 32.4 µM
- GI50 (TK-10 renal): 1.56 µM
- TGI (TK-10 renal): 7.7 µM
- GI50 (T-47D breast): 8.45 µM
- TGI (T-47D breast): 97.7 µM
- GI50 (OVCAR-5 ovarian): 11.1 µM
- TGI (OVCAR-5 ovarian): 23.8 µM
- GI50 (OVCAR-3 ovarian): 1.62 µM
- TGI (OVCAR-3 ovarian): 8.77 µM
- GI50 (SK-MEL-28 melanoma): 25.8 µM
- TGI (SK-MEL-28 melanoma): > 100 µM
- GI50 (SF-268 CNS): 9.44 µM
- TGI (SF-268 CNS): 30.9 µM
- GI50 (SNB-19 CNS): 19.6 µM
- TGI (SNB-19 CNS): 60.4 µM
- GI50 (HCT-15 colon): 3.82 µM
- TGI (HCT-15 colon): 25.5 µM
- GI50 (MDA-MB-435): 2.13 µM
- TGI (MDA-MB-435): 4.62 µM
- GI50 (SR leukemia): 4.55 µM
- TGI (SR leukemia): 33.6 µM
- GI50 (NCI-H226 lung): 5.32 µM
- TGI (NCI-H226 lung): 42.5 µM
- GI50 (A498 renal): 19.3 µM
- TGI (A498 renal): > 100 µM
- GI50 (CCRF-CEM leukemia): 2.75 µM
- TGI (CCRF-CEM leukemia): > 100 µM
- GI50 (RPMI-8226 leukemia): 3.53 µM
- TGI (RPMI-8226 leukemia): > 100 µM
- GI50 (K-562 leukemia): 2 µM
- TGI (K-562 leukemia): 4.53 µM
- GI50 (SF-295 CNS): 3.58 µM
- TGI (SF-295 CNS): 16.2 µM
- GI50 (IGROV1 ovarian): 20.5 µM
- TGI (IGROV1 ovarian): > 100 µM
- GI50 (COLO 205 colon): 5.69 µM
- TGI (COLO 205 colon): 34 µM
- GI50 (SNB-75 CNS): > 100 µM
- TGI (SNB-75 CNS): > 100 µM
- GI50 (M14 melanoma): 2.36 µM
- TGI (M14 melanoma): 6.32 µM
- GI50 (786-0 renal): 6.34 µM
- TGI (786-0 renal): 25.2 µM
- GI50 (CAKI-1 renal): 5.94 µM
- TGI (CAKI-1 renal): 21 µM
- GI50 (UO-31 renal): 27.5 µM
- TGI (UO-31 renal): > 100 µM
- GI50 (SK-OV-3 ovarian): 16.2 µM
- TGI (SK-OV-3 ovarian): 55.4 µM
- GI50 (LOX IMVI melanoma): 3.58 µM
- TGI (LOX IMVI melanoma): 23.1 µM
- GI50 (PC-3 prostate): 6.96 µM
- TGI (PC-3 prostate): 27.3 µM
- GI50 (OVCAR-4 ovarian): 30.3 µM
- TGI (OVCAR-4 ovarian): > 100 µM
- GI50 (HCT-116 colon): 7.03 µM
- TGI (HCT-116 colon): 19.9 µM
- GI50 (U251 CNS): 10.9 µM
- TGI (U251 CNS): 31.8 µM
- GI50 (ACHN renal): 10.8 µM
- TGI (ACHN renal): 28.4 µM
- GI50 (KM12 colon): 5.21 µM
- TGI (KM12 colon): 18.8 µM
- GI50 (OVCAR-8 ovarian): 5.52 µM
- TGI (OVCAR-8 ovarian): 20 µM
- GI50 (NCI-H522 lung): 40.3 µM
- TGI (NCI-H522 lung): > 100 µM
- GI50 (HOP-62 NSCLC): 14.7 µM
- TGI (HOP-62 NSCLC): 34.5 µM
- GI50 (NCI/ADR-RES ovarian): 4.44 µM
- TGI (NCI/ADR-RES ovarian): 23.8 µM
- GI50 (RXF 393 renal): 2.2 µM
- TGI (RXF 393 renal): 6.93 µM
- GI50 (SN12C renal): 11.4 µM
- TGI (SN12C renal): 24 µM
- GI50 (HS 578T breast): 29.8 µM
- TGI (HS 578T breast): > 100 µM
- GI50 (MCF7 breast): 6.26 µM
- TGI (MCF7 breast): 24.8 µM

Compound: COc1ccc2c(c1)Oc1nc(N)c(C#N)c(N)c1C2Sc1ccc(SC)cc1 (stereo not drawn)
- GI50 (HL-60(TB) leukemia): 1.99 µM
- TGI (HL-60(TB) leukemia): 5.49 µM
- GI50 (A549 NSCLC): 2 µM
- TGI (A549 NSCLC): 3.91 µM
- GI50 (HT29 colon): 2.2 µM
- TGI (HT29 colon): 4.36 µM
- GI50 (UACC-257 melanoma): 1.9 µM
- TGI (UACC-257 melanoma): 3.38 µM
- GI50 (NCI-H460 lung): 2.04 µM
- TGI (NCI-H460 lung): 4.05 µM
- GI50 (MDA-MB-231 breast): 1.85 µM
- TGI (MDA-MB-231 breast): 3.38 µM
- GI50 (DU-145 prostate): 1.79 µM
- TGI (DU-145 prostate): 3.19 µM
- GI50 (TK-10 renal): 1.77 µM
- TGI (TK-10 renal): 3.17 µM
- GI50 (T-47D breast): 1.94 µM
- TGI (T-47D breast): 4.91 µM
- GI50 (OVCAR-5 ovarian): 1.8 µM
- TGI (OVCAR-5 ovarian): 3.55 µM
- GI50 (OVCAR-3 ovarian): 1.75 µM
- TGI (OVCAR-3 ovarian): 3.19 µM
- GI50 (SK-MEL-28 melanoma): 1.71 µM
- TGI (SK-MEL-28 melanoma): 3.15 µM
- GI50 (SF-268 CNS): 1.7 µM
- TGI (SF-268 CNS): 3.29 µM
- GI50 (SNB-19 CNS): 1.77 µM
- TGI (SNB-19 CNS): 3.18 µM
- GI50 (HCT-15 colon): 1.58 µM
- TGI (HCT-15 colon): 3.33 µM
- GI50 (MDA-MB-435): 1.74 µM
- TGI (MDA-MB-435): 3.23 µM
- GI50 (SR leukemia): 2.25 µM
- TGI (SR leukemia): 6.66 µM
- GI50 (NCI-H226 lung): 1.92 µM
- TGI (NCI-H226 lung): 3.58 µM
- GI50 (HOP-92 NSCLC): 1.94 µM
- TGI (HOP-92 NSCLC): 3.56 µM
- GI50 (A498 renal): 1.77 µM
- TGI (A498 renal): 3.3 µM
- GI50 (UACC-62 melanoma): 1.81 µM
- TGI (UACC-62 melanoma): 3.33 µM
- GI50 (BT-549 breast): 1.63 µM
- TGI (BT-549 breast): 3 µM
- GI50 (MALME-3M melanoma): 1.78 µM
- TGI (MALME-3M melanoma): 3.35 µM
- GI50 (SF-539 CNS): 1.72 µM
- TGI (SF-539 CNS): 3.11 µM
- GI50 (RPMI-8226 leukemia): 2.86 µM
- TGI (RPMI-8226 leukemia): 6.43 µM
- GI50 (K-562 leukemia): 2.71 µM
- TGI (K-562 leukemia): 10.3 µM
- GI50 (SF-295 CNS): 1.81 µM
- TGI (SF-295 CNS): 3.34 µM
- GI50 (IGROV1 ovarian): 1.73 µM
- TGI (IGROV1 ovarian): 3.78 µM
- GI50 (COLO 205 colon): 1.85 µM
- TGI (COLO 205 colon): 3.6 µM
- GI50 (SNB-75 CNS): 1.46 µM
- TGI (SNB-75 CNS): 2.8 µM
- GI50 (M14 melanoma): 1.76 µM
- TGI (M14 melanoma): 3.33 µM
- GI50 (786-0 renal): 1.66 µM
- TGI (786-0 renal): 3.06 µM
- GI50 (UO-31 renal): 1.51 µM
- TGI (UO-31 renal): 2.84 µM
- GI50 (SK-OV-3 ovarian): 1.77 µM
- TGI (SK-OV-3 ovarian): 3.16 µM
- GI50 (LOX IMVI melanoma): 1.68 µM
- TGI (LOX IMVI melanoma): 3.21 µM
- GI50 (PC-3 prostate): 1.77 µM
- TGI (PC-3 prostate): 3.27 µM
- GI50 (OVCAR-4 ovarian): 1.64 µM
- TGI (OVCAR-4 ovarian): 3.07 µM
- GI50 (HCT-116 colon): 1.76 µM
- TGI (HCT-116 colon): 3.24 µM
- GI50 (U251 CNS): 1.73 µM
- TGI (U251 CNS): 3.19 µM
- GI50 (ACHN renal): 1.74 µM
- TGI (ACHN renal): 3.11 µM
- GI50 (SK-MEL-2 melanoma): 1.7 µM
- TGI (SK-MEL-2 melanoma): 3.28 µM
- GI50 (KM12 colon): 1.78 µM
- TGI (KM12 colon): 3.49 µM
- GI50 (EKVX NSCLC): 1.66 µM
- TGI (EKVX NSCLC): 3.09 µM
- GI50 (OVCAR-8 ovarian): 1.76 µM
- TGI (OVCAR-8 ovarian): 3.19 µM
- GI50 (HCC-2998 colon): 1.78 µM
- TGI (HCC-2998 colon): 3.36 µM
- GI50 (NCI-H522 lung): 1.65 µM
- TGI (NCI-H522 lung): 3.08 µM
- GI50 (HOP-62 NSCLC): 1.83 µM
- TGI (HOP-62 NSCLC): 3.49 µM
- GI50 (NCI/ADR-RES ovarian): 2.42 µM
- TGI (NCI/ADR-RES ovarian): 6.05 µM
- GI50 (MOLT-4 leukemia): 2.83 µM
- TGI (MOLT-4 leukemia): 6.87 µM
- GI50 (RXF 393 renal): 1.72 µM
- TGI (RXF 393 renal): 3.11 µM
- GI50 (SN12C renal): 1.64 µM
- TGI (SN12C renal): 3.06 µM
- GI50 (SK-MEL-5 melanoma): 1.79 µM
- TGI (SK-MEL-5 melanoma): 3.18 µM
- GI50 (MCF7 breast): 1.83 µM
- TGI (MCF7 breast): 4.5 µM
